{
  "source": "patent US20220175882A1",
  "about": "“BETA-CASEIN A2 AND REDUCING OR […] OF LACTOSE INTOLERANCE” (THE A2 MILK COMPANY LIMITED, priority 2013, published 2022)",
  "key": {"SH-SY5Y neuronal cells": {"test_system": "SH-SY5Y neuronal cells", "test": "Intracellular cysteine, GSH and SAM/SAH levels by HPLC with electrochemical detection", "format": "cell-based, human", "procedure": "Media was aspirated and the cells were washed twice with 1 mL of ice cold HBSS. HBSS was aspirated and 0.6 mL ice cold dH2O was added to the cells. The cells were scraped from the flask/dish and suspended in dH2O. […] The remaining lysate was added to a microcentrifuge tube and an equal volume of 0.4 N perchloric acid was added, followed by incubation on ice for 5 min. Samples were centrifuged at 5,000×g and the supernatant transferred to new microcentrifuge tubes.\nThe separation of redox and methylation pathway metabolites was accomplished using an Agilent Eclipse XDB-C8 analytical column (3×150 mm; 3.5 μm) and an Agilent Eclipse XDB-C8 (4.6×12.5 mm; 5 μm) guard column. […] The flow rate was initially set at 0.6 mL/min and a step gradient was used: 0-9 min 0% B, 9-19 min 50% B, 19-30 min 50% B. The column was then equilibrated with 5% B for 12 min prior to the next run. Temperature was maintained at 27° C. […] Sample concentrations were determined from the peak areas of metabolites using standard calibration curves and ESA-supplied HPLC software. Sample concentrations were normalised against protein content. In some cases samples were diluted in mobile phase as needed or up to 50 μl of sample was injected to assure that thiol levels were within the range of the standard curve."}, "SH-SY5Y cells": {"test_system": "SH-SY5Y cells", "test": "DNA methylation by MBD-seq (differentially methylated transcripts)", "format": "cell-based, human", "conditions": "cells treated 4 hours with 1 μM BCM-7; FDR<0.1, p<0.05", "procedure": "Global DNA methylation levels induced by BCM-7 were investigated using methyl-CpG binding domain (MBD) protein-enriched genome sequencing (MBD-seq) as described previously (Trivedi M., et al., Mol. Pharm. 2014), whereas mRNA translation microarray data was obtained using Agilent V3 microarray chip, from non-treated control SH-SY5Y cells and cells treated for 4 hours with 1 μM BCM-7.\nGenomic DNA was extracted from samples with the Easy DNA kit (Invitrogen K1800-01) using the appropriate protocol for cell lines. Fragmentation was performed on Covaris S2 with the following settings: duty cycle 10%, intensity 5, 200 cycles per burst during 200 sec. Fragments were obtained having an average length of 200 bp. The power mode is frequency sweeping, temperature 6-8° C., water level 12. A maximum of 5 μg was loaded in 130 μl Tris-EDTA in a microtube with AFA intensifier. For samples with less DNA input (down to 500 ng) the DNA was diluted 1:5 in TrisEDTA. DNA with an input from 5-3 μg was analysed on the Agilent 2100 using a DNA 1000 chip. DNA with an input lower than 3 μg was concentrated in a rotary evaporator to 25 μl and the fragment distribution was checked on a high sensitivity DNA chip. Methylated DNA was captured using the MethylCap kit (Diagenode, Belgium). The yield was typically between 0.5 and 8 ng of total captured DNA. Fragments were subsequently sequenced using an Illumina Genome Analyzer II. The concentrations of fragmented and captured DNA were determined on a Fluostar Optima plate reader with the Quant-iT PicoGreen dsDNA Assay Kit (Invitrogen P7589) at 480/520 nm.\nTo prepare the DNA library, a DNA Sample Prep Master Mix Set 1 (NEB E6040) was used in combination with a Multiplexing Sample Preparation Oligo Kit (96 samples, Illumina PE-400-1001). The entire fragmented DNA was utilised and followed the NEB protocols, using the multiplexing sequencing adapters provided in the Multiplexing Sample Preparation Oligo Kit. Size selection of the library was carried out on a 2% agarose gel (Low Range Ultra Agarose Biorad 161-3107). […] A fragment of 300 bps +/−50 bps was excised and eluted on a Qiagen Gel Extraction Kit column (Qiagen 28704) and eluted in 23 μl EB.\nThe Illumina library amplification index protocol was used with the following alterations: 22 μl DNA was used and performed 21 cycles run. The sample was purified on a Qiaquick PCR Purification column (Qiagen 28101) and eluted in 50 μl EB, 1:5 diluted, and concentrated in a rotary evaporator to 10 μl. 1 μl was applied to a Agilent 2100 HS DNA chip and the concentration was determined by smear analysis on the Agilent 2100. The samples were diluted to 10 nM. After denaturation with NaOH the samples were diluted to […]. The Paired-End flow cell was prepared according to the Cluster Station User Guide. […]"}, "[1]": {"test_system": "Caco-2 Gut epithelial cells", "conditions": "read-out: IC50, inhibition of cysteine uptake; GI epithelial cells (FIG. 4)", "procedure": "(§1) Pre-treatment in cells was performed for different time points for 30 min, 4, 24 and 48 h as described previously (Trivedi M., et al.; Mol. Pharm., 2014). SH-SY5Y human neuronal cells and Caco-2 Gut epithelial cells were plated in six-well plates and were pretreated with drugs and incubated for various times prior to measuring uptake. Media were aspirated and cells were washed with 600 μL of HBSS at 37° C. Non-radioactive HBSS was aspirated, replaced with 600 μL of 37° C. HBSS containing [^35S]-cysteine (1 μCl/1 mL), 10 μM unlabelled cysteine and 100 μM DTT, and the cells were incubated for 5 min. The [^35S]-cysteine/HBSS mixture was aspirated and treatment was terminated by two washes with ice-cold HBSS. Cells were then lysed with 600 μL of dH2O, scraped, collected in 1.5 mL microcentrifuge tubes, and sonicated for 10 s. 100 μL of each sample was aliquoted for protein assay. 200 μL of each sample (in triplicate) was aliquoted into scintillation vials with 4 mL of scintillation fluid, vortexed, and counted for radioactivity (normalised against protein content). […] The symbol * used in these figures indicates a statistically significant difference (p<0.05) compared against the untreated control, and the symbol # indicates a statistically significant difference (p<0.005) compared against the untreated control."}, "[2]": {"test_system": "SH-SY5Y human neuronal cells", "procedure": "as §1"}},
  "note": "Entries after “also recorded” stand apart in the source; their conditions may differ. Where a SMILES comes first, the peptide text is derived from it.",
  "data": [
    {"compound": "CC[C@H](C)[C@H](NC(=O)[C@@H]1CCCN1C(=O)CNC(=O)[C@@H]1CCCN1C(=O)[C@H](Cc1ccccc1)NC(=O)[C@@H]1CCCN1C(=O)[C@@H](N)Cc1ccc(O)cc1)C(=O)O", "note": "[BCM-7, beta-casomorphin-7] (H-YPFPGPI-OH; N-terminus and C-terminus assumed)", "values": [
      {"measurement": "Cysteine and glutathione (GSH) levels", "setting": "SH-SY5Y neuronal cells; 30 min, 4 h, 24 h", "value": "time-dependent decreases"},
      {"measurement": "Methylation capacity (SAM/SAH ratio)", "setting": "SH-SY5Y neuronal cells; different time points (FIG. 7)", "value": "affected"},
      {"measurement": "Differentially methylated transcripts: Galactose metabolism", "setting": "SH-SY5Y cells", "value": "GALK2 and GALR2 and GALT and GALR1 and CHST1 and NPY and PYY and GKN1"},
      {"measurement": "Differentially methylated transcripts: Gastric Acid secretion", "setting": "SH-SY5Y cells", "value": "SCTR and OXTR and VIPR1 and SST and PPARGC1A and PGC"},
      {"measurement": "Differentially methylated transcripts: Lactose Biosynthetic pathway", "setting": "SH-SY5Y cells", "value": "LGALS12; also recorded: B4GALT1; also recorded: B4GALT2"},
      {"measurement": "Differentially methylated transcripts: Lactose metabolism", "setting": "SH-SY5Y cells", "value": "LCT"},
      {"measurement": "IC50", "setting": "[1]", "value": 15.9, "unit": "nM"},
      {"measurement": "Receptor mediating the effect on cysteine uptake", "setting": "[2]; in presence of CTAP (selective μ-antagonist) or naltrindole (delta antagonist), FIG. 6", "value": "μ-opioid receptor mediated"},
      {"measurement": "Time course of inhibition of cysteine uptake", "setting": "[2]; neuronal cells and GI epithelial cells (FIG. 5), 30 min to 48 h exposure", "value": "fully developed after 30 minutes and was sustained through 48 hours"},
      {"measurement": "IC50", "setting": "[2]; read-out: IC50, inhibition of cysteine uptake, neuronal cells (FIG. 4)", "value": 1.31, "unit": "nM"}
    ]}
  ]
}
